Biological target: HCV NS3-4A serine protease (full-length NS3-4A protein) (Hepatitis C virus genotype 1a (isolate 1) (HCV), UniProt P26664)
Assay: HCV NS3-4A protease assay
Assay type: biochemical, HCV genotype 1a
Conditions: strain HCV-1, fluorogenic peptide substrate, read-out: Protease assay Ex. 12 IC50
Experimental: The inhibitory activity of certain compounds of Table A against HCV NS3-4A serine protease is determined in a homogenous assay using the full-length NS3-4A protein (genotype 1a, strain HCV-1) and a commercially available internally-quenched fluorogenic peptide substrate as described by Taliani, M., et al. 1996 Anal. Biochem. 240:60-67, which is incorporated by reference in its entirety.

Chain of HCV NS3-4A serine protease (full-length NS3-4A protein) (P26664 1027-1657): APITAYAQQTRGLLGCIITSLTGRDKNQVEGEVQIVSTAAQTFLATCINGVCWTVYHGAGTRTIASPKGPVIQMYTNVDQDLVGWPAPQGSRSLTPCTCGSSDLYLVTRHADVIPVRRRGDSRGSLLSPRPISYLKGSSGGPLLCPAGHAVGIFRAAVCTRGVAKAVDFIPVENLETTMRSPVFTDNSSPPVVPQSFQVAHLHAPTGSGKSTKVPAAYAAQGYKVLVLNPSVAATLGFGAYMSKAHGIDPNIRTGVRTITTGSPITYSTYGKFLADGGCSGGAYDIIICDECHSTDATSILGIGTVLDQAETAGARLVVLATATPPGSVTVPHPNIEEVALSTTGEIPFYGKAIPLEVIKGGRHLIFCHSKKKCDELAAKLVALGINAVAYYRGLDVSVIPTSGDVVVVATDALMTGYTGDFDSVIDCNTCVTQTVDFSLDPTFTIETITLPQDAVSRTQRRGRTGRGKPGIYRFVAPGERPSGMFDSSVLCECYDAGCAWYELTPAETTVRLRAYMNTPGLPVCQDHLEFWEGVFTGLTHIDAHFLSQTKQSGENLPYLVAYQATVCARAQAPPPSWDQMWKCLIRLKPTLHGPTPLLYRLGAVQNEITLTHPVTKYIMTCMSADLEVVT
Chain of HCV NS3-4A serine protease (full-length NS3-4A protein) (P26664 1658-1711 partner): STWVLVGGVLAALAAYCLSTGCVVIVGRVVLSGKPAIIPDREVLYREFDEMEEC

SMILES | IC50
C=C[C@@H]1C[C@]1(NC(=O)[C@@H]1C[C@@]2(CN1C(=O)[C@@H](NC(=O)[C@@H](NC(=O)[C@@H]1CCCCN1C(C)C)C1(C)CCOCC1)C1(C)CCCCC1)C(C)(C)C21CCC1)C(=O)NS(=O)(=O)N(CC)CC [Compound 158, (5R,8S)-N-[(1R,2S)-1-{[(diethylamino)sulfonyl]carbamoyl}-2-vinylcyclopropyl]-7-[(2S)-2-{[(2S)-2-({[(2S)-1-isopropylpiperidin-2-yl]carbonyl}amino)-2-(4-methyltetrahydro-2H-pyran-4-yl)acetyl]amino}-2-(1-methylcyclohexyl)acetyl]-10,10-dimethyl-7-azadispiro[3.0.4.1]decane-8-carboxamide] | 22 nM
C=C[C@@H]1C[C@]1(NC(=O)[C@@H]1C[C@@]2(CN1C(=O)[C@@H](NC(=O)[C@@H](NC(=O)[C@@H]1CCCN1CC)C1(C)CCCCC1)C1(C)CCCCC1)C(C)(C)C21CCC1)C(=O)NS(=O)(=O)N(CC)CC [Compound 159, (5R,8S)-N-[(1R,2S)-1-{[(diethylamino)sulfonyl]carbamoyl}-2-vinylcyclopropyl]-7-[(2S)-2-{[(2S)-2-({[(2S)-1-ethylpyrrolidin-2-yl]carbonyl}amino)-2-(1-methylcyclohexyl)acetyl]amino}-2-(1-methylcyclohexyl)acetyl]-10,10-dimethyl-7-azadispiro[3.0.4.1]decane-8-carboxamide] | 11 nM
C=C[C@@H]1C[C@]1(NC(=O)[C@@H]1C[C@@]2(CN1C(=O)[C@@H](NC(=O)[C@@H](NC(=O)[C@@H]1CCCCN1C(C)C)C1(C)CCCCC1)C1(C)CCCCC1)C(C)(C)C21CCC1)C(=O)NS(=O)(=O)N(CC)CC [Compound 160, (5R,8S)-N-[(1R,2S)-1-{[(diethylamino)sulfonyl]carbamoyl}-2-vinylcyclopropyl]-7-[(2S)-2-{[(2S)-2-({[(2S)-1-isopropylpiperidin-2-yl]carbonyl}amino)-2-(1-methylcyclohexyl)acetyl]amino}-2-(1-methylcyclohexyl)acetyl]-10,10-dimethyl-7-azadispiro[3.0.4.1]decane-8-carboxamide] | 3 nM
C=C[C@@H]1C[C@]1(NC(=O)[C@@H]1C[C@@]2(CN1C(=O)[C@@H](NC(=O)[C@@H](NC(=O)c1[nH]c(C)c(C)c1C(C)=O)C(C)(C)C)C(C)(C)C)C(C)(C)C21CCC1)C(=O)NS(=O)(=O)N1CCCC1 [Compound 161, (5R,8S)-7-[(2S)-2-{[(2S)-2-{[(3-acetyl-4,5-dimethyl-1H-pyrrol-2-yl)carbonyl]amino}-3,3-dimethylbutanoyl]amino}-3,3-dimethylbutanoyl]-10,10-dimethyl-N-{(1R,2S)-1-[(pyrrolidin-1-ylsulfonyl)carbamoyl]-2-vinylcyclopropyl}-7-azadispiro[3.0.4.1]decane-8-carboxamide] | 65 nM
C=C[C@@H]1C[C@]1(NC(=O)[C@@H]1C[C@@]2(CN1C(=O)[C@@H](NC(=O)[C@@H](NC(=O)[C@@H]1CCCCN1C(C)C)C1CCCCC1)C(C)(C)C)C(C)(C)C21CCC1)C(=O)NS(=O)(=O)N(C)C [Compound 162, (5R,8S)-7-[(2S)-2-{[(2S)-2-cyclohexyl-2-{[(1-isopropylpiperidin-2-yl)carbonyl]amino}acetyl]amino}-3,3-dimethylbutanoyl]-N-[(1R,2S)-1-{[(dimethylamino)sulfonyl]carbamoyl}-2-vinylcyclopropyl]-10,10-dimethyl-7-azadispiro[3.0.4.1]decane-8-carboxamide] | 0.9 nM
C=CC1CC1(NC(=O)[C@@H]1C[C@@]2(CN1C(=O)[C@@H](NC(=O)[C@@H](NC(=O)C1CCCCN1C(C)C)C(C)(C)C)C(C)(C)C)C(C)(C)C21CCC1)C(=O)NS(=O)(=O)N1CCC[C@H]1CO (stereo partly drawn) [Compound 163, (5R,8S)-N-[1-({[(2S)-2-(hydroxymethyl)pyrrolidin-1-yl]sulfonyl}carbamoyl)-2-vinylcyclopropyl]-7-[(2S)-2-{[(2S)-2-{[(1-isopropylpiperidin-2-yl)carbonyl]amino}-3,3-dimethylbutanoyl]amino}-3,3-dimethylbutanoyl]-10,10-dimethyl-7-azadispiro[3.0.4.1]decane-8-carboxamide] | 1500 nM
C=CC1CC1(NC(=O)[C@@H]1C[C@@]2(CN1C(=O)[C@@H](NC(=O)[C@@H](NC(=O)C1CCCCN1C(C)C)C1CCCCC1)C(C)(C)C)C(C)(C)C21CCC1)C(=O)NS(=O)(=O)N1CC(F)(F)C1 (stereo partly drawn) [Compound 164, (5R,8S)-7-[(2S)-2-{[(2S)-2-cyclohexyl-2-{[(1-isopropylpiperidin-2-yl)carbonyl]amino}acetyl]amino}-3,3-dimethylbutanoyl]-N-(1-{[(3,3-difluoroazetidin-1-yl)sulfonyl]carbamoyl}-2-vinylcyclopropyl)-10,10-dimethyl-7-azadispiro[3.0.4.1]decane-8-carboxamide] | 8 nM
C=C[C@@H]1C[C@]1(NC(=O)[C@@H]1C[C@@]2(CN1C(=O)[C@@H](NC(=O)[C@@H](NC(=O)c1cnccn1)C1CCCCC1)C(C)(C)C)C(C)(C)C21CCC1)C(=O)NS(=O)(=O)NC1CC1 [Compound 165, (5R,8S)-7-[(2S)-2-({(2S)-2-cyclohexyl-2-[(pyrazin-2-ylcarbonyl)amino]acetyl}amino)-3,3-dimethylbutanoyl]-N-[(1R,2S)-1-{[(cyclopropylamino)sulfonyl]carbamoyl}-2-vinylcyclopropyl]-10,10-dimethyl-7-azadispiro[3.0.4.1]decane-8-carboxamide] | 6.2 nM
C=C[C@@H]1C[C@]1(NC(=O)[C@@H]1C[C@@]2(CN1C(=O)[C@@H](NC(=O)[C@@H](NC(=O)c1cnccn1)C1CCCCC1)C(C)(C)C)C(C)(C)C21CCC1)C(=O)NS(=O)(=O)NC(C)(C)C [Compound 166, (5R,8S)-N-[(1R,2S)-1-{[(tert-butylamino)sulfonyl]carbamoyl}-2-vinylcyclopropyl]-7-[(2S)-2-({(2S)-2-cyclohexyl-2-[(pyrazin-2-ylcarbonyl)amino]acetyl}amino)-3,3-dimethylbutanoyl]-10,10-dimethyl-7-azadispiro[3.0.4.1]decane-8-carboxamide] | 10 nM
C=C[C@@H]1C[C@]1(NC(=O)[C@@H]1C[C@@]2(CN1C(=O)[C@@H](NC(=O)[C@@H](NC(=O)c1cnccn1)C1CCCCC1)C(C)(C)C)C(C)(C)C21CCC1)C(=O)NS(=O)(=O)N(C)CC [Compound 167, (5R,8S)-7-[(2S)-2-({(2S)-2-cyclohexyl-2-[(pyrazin-2-ylcarbonyl)amino]acetyl}amino)-3,3-dimethylbutanoyl]-N-[(1R,2S)-1-({[ethyl(methyl)amino]sulfonyl}carbamoyl)-2-vinylcyclopropyl]-10,10-dimethyl-7-azadispiro[3.0.4.1]decane-8-carboxamide] | 0.6 nM
C=C[C@@H]1C[C@]1(NC(=O)[C@@H]1C[C@@]2(CN1C(=O)[C@@H](NC(=O)[C@@H](NC(=O)[C@@H]1CCCCN1C(C)C)C1CCCCC1)C(C)(C)C)C(C)(C)C21CCC1)C(=O)NS(=O)(=O)NC(C)(C)C [Compound 169, (5R,8S)-N-[(1R,2S)-1-{[(tert-butylamino)sulfonyl]carbamoyl}-2-vinylcyclopropyl]-7-[(2S)-2-{[(2S)-2-cyclohexyl-2-({[(2S)-1-isopropylpiperidin-2-yl]carbonyl}amino)acetyl]amino}-3,3-dimethylbutanoyl]-10,10-dimethyl-7-azadispiro[3.0.4.1]decane-8-carboxamide] | 1.5 nM
C=C[C@@H]1C[C@]1(NC(=O)[C@@H]1C[C@@]2(CN1C(=O)[C@@H](NC(=O)[C@@H](NC(=O)[C@@H]1CCCCN1C(C)C)C1CCCCC1)C(C)(C)C)C(C)(C)C21CCC1)C(=O)NS(=O)(=O)N(C)CC [Compound 170, (5R,8S)-7-[(2S)-2-{[(2S)-2-cyclohexyl-2-({[(2S)-1-isopropylpiperidin-2-yl]carbonyl}amino)acetyl]amino}-3,3-dimethylbutanoyl]-N-[(1R,2S)-1-({[ethyl(methyl)amino]sulfonyl}carbamoyl)-2-vinylcyclopropyl]-10,10-dimethyl-7-azadispiro[3.0.4.1]decane-8-carboxamide] | 0.5 nM
C=C[C@@H]1C[C@]1(NC(=O)[C@@H]1C[C@@]2(CN1C(=O)[C@@H](NC(=O)[C@@H](NC(=O)c1cnccn1)C1CCCCC1)C(C)(C)C)C(C)(C)C21CCC1)C(=O)NS(=O)(=O)N(CC)CC [Compound 173, (5R,8S)-7-[(2S)-2-({(2S)-2-cyclohexyl-2-[(pyrazin-2-ylcarbonyl)amino]acetyl}amino)-3,3-dimethylbutanoyl]-N-[(1R,2S)-1-{[(diethylamino)sulfonyl]carbamoyl}-2-vinylcyclopropyl]-10,10-dimethyl-7-azadispiro[3.0.4.1]decane-8-carboxamide] | 3 nM
C=C[C@@H]1C[C@]1(NC(=O)[C@@H]1C[C@@]2(CN1C(=O)[C@@H](NC(=O)[C@@H](NC(=O)[C@@H]1CCCCN1C(C)C)C1CCCCC1)C(C)(C)C)C(C)(C)C21CCC1)C(=O)NS(=O)(=O)N(CC)CC [Compound 174, (5R,8S)-7-[(2S)-2-{[(2S)-2-cyclohexyl-2-({[(2S)-1-isopropylpiperidin-2-yl]carbonyl}amino)acetyl]amino}-3,3-dimethylbutanoyl]-N-[(1R,2S)-1-{[(diethylamino)sulfonyl]carbamoyl}-2-vinylcyclopropyl]-10,10-dimethyl-7-azadispiro[3.0.4.1]decane-8-carboxamide] | 0.6 nM
C=C[C@@H]1C[C@]1(NC(=O)[C@@H]1C[C@@]2(CN1C(=O)[C@@H](NC(=O)[C@@H](NC(=O)Cc1ccncc1)C1CCCCC1)C(C)(C)C)C(C)(C)C21CCC1)C(=O)NS(=O)(=O)N1CCCC1 [Compound 175, (5R,8S)-7-[(2S)-2-({cyclohexyl[(pyridin-4-ylacetyl)amino]acetyl}amino)-3,3-dimethylbutanoyl]-10,10-dimethyl-N-{(1R,2S)-1-[(pyrrolidin-1-ylsulfonyl)carbamoyl]-2-vinylcyclopropyl}-7-azadispiro[3.0.4.1]decane-8-carboxamide] | 10 nM

Source: US8613914B2, “Peptidomimetic sulfamide compounds and antiviral uses thereof” (Novartis AG, priority 2009, dated 2013)
